Experimental findings from PMC5785774 (ACS Central Science, 2018) are described below.

This assay addresses PKCδ-C1b (Mus musculus, UniProt P28867). Nature of the assay: Kd measured in the peptide-phospholipid composition used for NMR. The assay is classed as binding.

Sequence of PKCδ-C1b (P28867 231-281 limits assumed): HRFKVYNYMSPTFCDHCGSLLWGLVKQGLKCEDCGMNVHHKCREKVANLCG

Usually Kd stands for the equilibrium constant for the complex coming apart. `CCCC(=O)O[C@@H]1[C@@H](C)[C@@]2(O)[C@@H](C=C(CO)C[C@]3(O)C(=O)C(C)=C[C@@H]23)[C@@H]2C(C)(C)[C@]12OC(=O)CCC` [phorbol 12,13-dibutyrate]: binding was put at a Kd of 1.5 nM.
